Among the test systems are HT-29; COLO 205; T47D; SN12C; TK-10; 786-0; M14; Malme-3M; MDA-MB-435; MDA-N; SF-295; HOP-92; EKVX; OVCAR-8; NCI-H460; SNB-19; OVCAR-5; NCI/ADR-RES; NCI-H226; A498.
What all share (test): NCI-60 cell line screen, 48 h

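1) Cells in 96-well plates. 2) Compound, 48 h, 5 concentrations. 3) Linear interpolation between surrounding doses. 4) Unreached endpoint = highest concentration. GI50 marks 50% less growth.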 Activity calls are given as the source filed them. No stated cut-off is given here; in the data, active = GI50 up to about 1.1 µM and inactive = higher.

Take `COc1ccc(C2=C(OC(C)=O)c3cccn3-c3ccc(Cl)cc3S2)cc1`: the GI50 was 3.75 µM (inactive) with HT-29; 5.66 µM (inactive) in the assay on COLO 205; 5.37 µM (inactive) with T47D; 3.74 µM (inactive) in the assay on SN12C; > 10 µM (inactive) in the assay with TK-10; 3.85 µM (inactive) in the assay on 786-0. The GI50 in the assay with M14 was 5.07 µM (inactive); with Malme-3M it was 6.58 µM (inactive); with MDA-MB-435 it was 2.22 µM (inactive); with MDA-N it was 2.13 µM (inactive); in the assay on SF-295, 3.05 µM (inactive); with HOP-92 it was 1.3 µM (inactive). For the same compound, the GI50 was 6.67 µM (inactive) in the assay on EKVX and 6.53 µM (inactive) in the assay on OVCAR-8.
As to `CC1=CC(=O)/C(=C/n2c(=S)[nH]c3ccc([N+](=O)[O-])cc32)C(=O)O1`, the GI50 with NCI-H460, in the assay with HT-29, in the assay on COLO 205, in the assay with SNB-19, in the assay on OVCAR-5 and in the assay with NCI/ADR-RES was > 100 µM (inactive) in each case. Also, the GI50 in the assay with T47D, in the assay with SN12C, with TK-10, in the assay on 786-0, with M14 and in the assay on MDA-MB-435 was > 100 µM (inactive) throughout. Further, the GI50 in the assay on MDA-N is > 100 µM (inactive); with NCI-H226, > 100 µM (inactive); in the assay on SF-295 it was > 100 µM (inactive); with HOP-92, > 100 µM (inactive); in the assay on EKVX, > 50.1 µM (inactive); with OVCAR-8, > 100 µM (inactive).
With `Cc1cc(=O)oc2c3c(ccc12)OC(c1ccc(Br)cc1)CC3=O` (stereo not drawn), the GI50 is 15 µM (inactive) in the assay on NCI-H460; 14.7 µM (inactive) in the assay on HT-29; 12.7 µM (inactive) in the assay on COLO 205; 5.31 µM (inactive) with SNB-19; 16.3 µM (inactive) in the assay on OVCAR-5; 12.5 µM (inactive) with NCI/ADR-RES. Besides, the GI50 with T47D is 0.177 µM (active); in the assay on SN12C, 5.42 µM (inactive); in the assay on TK-10 it was 13.7 µM (inactive); with 786-0 it was 5.48 µM (inactive); with M14, 10.4 µM (inactive); with Malme-3M, 6.43 µM (inactive). Also, the GI50 was 4.69 µM (inactive) in the assay on MDA-MB-435; 8.13 µM (inactive) in the assay on MDA-N; 18 µM (inactive) in the assay on NCI-H226; 10.7 µM (inactive) with SF-295; 15.1 µM (inactive) in the assay on EKVX; 5.86 µM (inactive) in the assay on OVCAR-8.
Consider `CC(C)C1OC(=O)/C=C/C=C/C=C/C=C/C=C/CC(O)CC(O)CC(O)CC(O)CC(O)CC(O)CC(O)CC(O)/C=C/C1C` (stereo not drawn), for which the GI50 in the assay on A498, in the assay on NCI-H460, in the assay with HT-29, in the assay on COLO 205, with SNB-19 and in the assay with OVCAR-5 was > 100 µM (inactive) throughout. Besides, the GI50 in the assay on NCI/ADR-RES, in the assay with SN12C, with TK-10, in the assay on 786-0, with M14 and in the assay on Malme-3M was > 100 µM (inactive) each time. Besides, the GI50 in the assay on MDA-MB-435, with MDA-N, with NCI-H226, in the assay on SF-295, with HOP-92 and in the assay with EKVX was > 100 µM (inactive) each time. Further, the GI50 in the assay on OVCAR-8 is > 100 µM (inactive).
With `CCN(CC)C(=S)SC` [METHYLDIETHYL CARBAMODITHIOATE], the GI50 in the assay with A498, in the assay with NCI-H460, in the assay on HT-29, with COLO 205, in the assay on SNB-19 and in the assay on OVCAR-5 was > 100 µM (inactive) throughout. Besides, the GI50 with NCI/ADR-RES, with T47D, in the assay on SN12C, in the assay on TK-10, in the assay on 786-0 and with M14 was > 100 µM (inactive) each time. In addition, the GI50 in the assay on Malme-3M, in the assay on MDA-N, with NCI-H226, in the assay with SF-295, in the assay on HOP-92 and in the assay with EKVX was > 100 µM (inactive) in each case. For the same compound, in the assay on OVCAR-8, the GI50 is > 100 µM (inactive).
For the compound `C=Cc1ccccc1C1(O)C=CC(OC)(OC)C=C1`, the GI50 was 23.2 µM (inactive) in the assay on A498; 8.57 µM (inactive) in the assay with NCI-H460; 3.57 µM (inactive) with HT-29; 10.8 µM (inactive) with COLO 205; 15.8 µM (inactive) in the assay on SNB-19; 6.93 µM (inactive) with OVCAR-5. Besides, the GI50 in the assay with NCI/ADR-RES was 4.81 µM (inactive); with T47D, 22.2 µM (inactive); in the assay on SN12C it was 8.24 µM (inactive); in the assay with TK-10 it was 3.25 µM (inactive); in the assay with 786-0, 5.04 µM (inactive); in the assay with M14, 5.96 µM (inactive). Besides, the GI50 with Malme-3M is 13.5 µM (inactive); in the assay on MDA-MB-435, 4.36 µM (inactive); in the assay with NCI-H226, 30.5 µM (inactive); with SF-295, 17.8 µM (inactive); with EKVX, 14.7 µM (inactive); in the assay on OVCAR-8, 2.06 µM (inactive).
`CCOC(=O)Nc1nn(C)/c(=N/Cc2ccccc2)s1`: the GI50 in the assay with A498, in the assay on NCI-H460, in the assay on COLO 205, in the assay on SNB-19, in the assay with OVCAR-5 and in the assay with T47D was > 100 µM (inactive) in each case. In addition, the GI50 with SN12C, in the assay on TK-10, with 786-0, in the assay with MDA-MB-435, in the assay with MDA-N and in the assay with SF-295 was > 100 µM (inactive) in each case. The GI50 in the assay with HOP-92 and in the assay on EKVX was > 100 µM (inactive) each time.
Consider `O=C(COc1ccc(OCC(=O)N2C(=O)CC(=O)N(c3ccccc3)C2=S)cc1)N1C(=O)CC(=O)N(c2ccccc2)C1=S`, for which the GI50 with A498 was 80.2 µM (inactive); in the assay on NCI-H460 it was 40.9 µM (inactive); in the assay on HT-29 it was 61.2 µM (inactive); with COLO 205 it was 61.2 µM (inactive); in the assay on SNB-19, 69.7 µM (inactive); in the assay on OVCAR-5, > 100 µM (inactive). The GI50 in the assay on NCI/ADR-RES was > 100 µM (inactive); in the assay with SN12C it was > 100 µM (inactive); in the assay with TK-10 it was > 100 µM (inactive); in the assay with 786-0, 56.1 µM (inactive); in the assay with M14 it was 89.5 µM (inactive); with Malme-3M it was > 100 µM (inactive). Also, the GI50 in the assay with MDA-MB-435 was 76 µM (inactive); with MDA-N, 68.7 µM (inactive); in the assay with NCI-H226, 65.8 µM (inactive); with SF-295, 56.6 µM (inactive); with HOP-92, 52 µM (inactive); in the assay on EKVX, > 100 µM (inactive).

Values taken from ChEMBL document CHEMBL1201862, “PubChem BioAssay data set” (2004).
